What is called IC50 is the midpoint of a concentration-inhibition curve.

Data on 13 compounds can be found in ChEMBL document CHEMBL1177867, “Synthesis and antioxidant activity evaluation of a syringic hydrazones family” (Eur J Med Chem, 2010).

The source made the active and inactive calls. The rule behind the calls is not given here.

The nature of data set [1]: Inhibition of cell-mediated LDL oxidation in HMEC1 cells at 10 uM after 6 hrs by TBARS assay. Details: scale not given: the % may be the effect or the level left.
Data set [2] is described as follows: Antioxidant activity against superoxide radical generation in HMEC1 cells. The format is functional, Homo sapiens, HMEC-1.
Data set [3] in a line: Antioxidant activity assessed as trolox equivalents of ABTS radical scavenging activity by TEAC assay. The format is functional.
Data set [4] can be described thus: Inhibition against copper-induced LDL oxidation in cell-free system at 10 uM after 3 hrs by TBARS assay. Details: scale not given: the % may be the effect or the level left.
Data set [5] can be described thus: Cytotoxicity against HMEC1 cells after 6 hrs by MTT assay. It is filed as cell-based. Particulars: human, hmec-1, 6 h. Background: Formazan colour is commonly taken as a measure of viable cells.
The nature of data set [6]: Inhibition against UV-induced LDL oxidation in cell-free system at 10 uM after 2 hrs by TBARS assay. Details: scale not given: the % may be the effect or the level left.
Data set [7] concerns Radical scavenging activity. Put plainly: Antioxidant activity assessed as DPPH radical scavenging activity after. It is filed as functional. For orientation: The DPPH test is a chemical assay of radical scavenging.
The test system of the next data set is HMEC-1. Put plainly: Cytoprotective activity against 4HNE-induced cytotoxicity in HMEC1 cells at 25 uM by MTT assay. It is filed as functional, cell-based. Particulars: Homo sapiens.

On to `COc1cc(/C=N/NC(=O)c2cccnc2)cc(OC)c1O`, for which the Activity was 5% in data set [1]; 44% in data set [2]; 1.25 in data set [3]; 77% in data set [4]; 60% in data set [5]; 20% in data set [6]. Further, the IC50 in data set [7] is 18 µM.

`COc1cc(/C=N/NC(=N)N)cc(OC)c1O.Cl`: the Activity came to 10% in data set [1]; 36% in data set [2]; 0.69 in data set [3]; 6% in data set [4]; 70% in data set [5]; 24% in data set [6].

Regarding `COc1cc(/C=N/Nc2ccccc2F)cc(OC)c1O`, the Activity in data set [1] stood at 13%; in data set [2] it was 33%; in data set [3] it was 0.78; in data set [4], 4%; in data set [5], 79%; in data set [6], 16%.

`Cc1c(C)c2c(c(C)c1O)CCC(C)(C(=O)O)O2` (centres undefined) [TROLOX]: the Activity was 3% in data set [1]; 5% in data set [2]; 6% in data set [4]; 57% in data set [5]; 18% in data set [6].

Consider `COc1cc(/C=N/NC(=O)c2cc(C)n[nH]2)cc(OC)c1O`, for which the Activity in data set [1] came to 3%; in data set [2], 50%; in data set [3] it was 1.15; in data set [4] it was 4%; in data set [5] it was 69%; in data set [6], 17%.

As for `COc1cc(/C=N/NC(=O)OCc2ccccc2)cc(OC)c1O`, the Activity in data set [1] was 3%; in data set [2], 50%; in data set [3], 1.11; in data set [4], 6%; in data set [5], 69%; in data set [6] it was 18%.

`COc1cc(/C=N/NC(=O)c2ccncc2)cc(OC)c1O`: the Activity in data set [1] was 7%; in data set [2], 22%; in data set [3] it was 1.25; in data set [4], 85%; in data set [5], 65%; in data set [6] it was 18%. In addition, the IC50 in data set [7] turned out to be 17 µM.

In the case of `NNC(=O)c1ccncc1`, the outcome in the data set on HMEC-1 was inactive.

`COc1cc(/C=N/Nc2c(Cl)cc(C(F)(F)F)cc2Cl)cc(OC)c1O`: the Activity in data set [1] was found to be 4%; in data set [2] it was 42%; in data set [3], 0.98; in data set [4], 3%; in data set [5], 74%; in data set [6] it was 15%.

For `COc1cc(/C=N/Nc2ccc(F)cc2)cc(OC)c1O`, the Activity was determined as 5% in data set [1]; 57% in data set [2]; 1.02 in data set [3]; 6% in data set [4]; 58% in data set [5]; 18% in data set [6].

Take `COc1cc(/C=N/Nc2nc3ccccc3s2)cc(OC)c1O`: the Activity is 3% in data set [1]; 56% in data set [2]; 0.89 in data set [3]; 2% in data set [4]; 55% in data set [5]; 17% in data set [6].

In the case of `COc1cc(C(=O)O)cc(OC)c1O`, in the data set on HMEC-1, the result was inactive.

For the compound `COc1cc(/C=N/Nc2nncc3ccccc23)cc(OC)c1O.Cl`, the Activity in data set [1] came out at 4%; in data set [2] it was 30%; in data set [3] it was 0.75; in data set [4], 5%; in data set [5] it was 66%; in data set [6], 18%.
